Results as given in patent US11859229B2, “Polyvinyl alcohol-degrading enzyme and process for producing the same” (Hayashibara Co., Ltd., priority 2017, dated 2024).

Key:
Assay type in all cases: biochemical, Pseudomonas sp. VT1B strain (NBRC110478)
PVA-A and PVA-B = experiment: Effects of metal salts on PVA-oxidizing activity, summary for both enzymes; details: 1 mM, in words
Experimental: (§1) Using the purified enzyme preparations of PVA-A and PVA-B, obtained by the method of Experiment 2, effects of various metal salts on the enzyme activity were investigated according to the assay of the PVA-oxidizing activity as an index in the presence of 1 mM metal salts.

PVA-B [1] = experiment: Effects of various metal salts on PVA-oxidizing activity of PVA-B
Experimental: (§2) To 0.5 mL of a substrate solution prepared by dissolving PVA (Reagent grade polyvinyl alcohol, polymerization degree: 2,000, Nacalai Tesque Inc., Kyoto, Japan) into 100 mM sodium phosphate buffer (pH 7.0) to give a concentration of 2% (w/v), 15 µL of 2% (w/v) of sodium azide solution was added, and then 0.5 mL of an enzyme solution is further added and reacted with shaking at 27° C. for 60 min. After the 60 min-reaction, the reaction was stopped by mixing 0.32 mL of the reaction mixture to 0.8 mL of a titanium reagent, and the yellow color, produced by reacting hydrogen peroxide formed by the enzyme reaction and the titanium reagent, was measured by measuring the absorbance at 410 nm (A410) as an index. Separately, the enzyme solution was added to the substrate solution, and the resulting mixture is immediately mixed with the titanium reagent. The resulting mixture was similarly measured its color and the value was used as the value at the reaction zero minutes. Then, the amount of the formed hydrogen peroxide is determined and the PVA-oxidizing activity is calculated based on the following formula. It is known that the absorbance at 410 nm (A410) increases by “1” when 3.65 […]mole/mL of hydrogen peroxide is formed. Therefore, in the following Formula 1, the coefficient of “3.65” has been multiplied. One unit of the PVA-oxidizing activity is defined as the amount of enzyme that forms 1 […]mole of hydrogen peroxide per min under the above conditions. Titanium reagent is prepared by diluting 5% titanium sulfate (IV) solution, commercialized by Nacalai Tesque Inc., Kyoto, Japan, 25-fold with 10% (w/w) sulfuric acid.
as §1

PVA-A [2] = experiment: Effects of various metal salts on PVA-oxidizing activity of PVA-A
Experimental: as §2, §1

PVA-A [3] = experiment: Substrate specificity of PVA-oxidizing activity of PVA-A; details: substrate 1% (v/v) or saturated; activity against PVA = 100%
Experimental: as §2
(§3) The substrate specificity of PVA-oxidizing activity was investigated by allowing PVA-A and PVA-B, the purified enzyme preparations obtained by the method in Experiment 2, to act on various secondary alcohols, primary alcohols and the like as substrates. In other words, the PVA-oxidizing activity of the enzymes was measured for primary alcohols having different chain length (methanol, ethanol, propanol, butanol, pentanol, hexanol, heptanol, and decanol), secondary alcohols (2-propanol, 2-pentanol, 2-hexanol, 4-heptanol, 2-octanol, 4-decanol, and 2, 4-pentanediol), and a tertiary alcohol (tert-butanol).

PVA-B [4] = experiment: Substrate specificity of PVA-oxidizing activity of PVA-B; details: substrate 1% (v/v) or saturated; activity against PVA = 100%
Experimental: as §2, §3

[5] = PVA-oxidizing activity in the presence of 1 mM metal salts, None = 100

| Compound | Relative activity (%) PVA-B (PVA-B [1]; [5]) | Relative activity (%) PVA-A (PVA-A [2]; [5]) | Relative activity (%) PVA-A (PVA-A [3]) | Relative activity (%) PVA-B (PVA-B [4]) | other results |
| --- | --- | --- | --- | --- | --- |
| [Cl][Hg][Cl] [HgCl2] | 4% | 22% | – | – | Effect on PVA-oxidizing activity (PVA-A and PVA-B): remarkably inhibited |
| [Ca+2].[Cl-].[Cl-] [CaCl2] | 98% | 98% | – | – | – |
| CCCO [Propanol] | – | – | 0% | 0% | – |
| CC(O)CC(C)O (stereo not shown) [2,4-Pentanediol] | – | – | 0% | 0% | – |
| CC(C)(C)O [tert-Butanol] | – | – | 0% | 1% | – |
| CCO [Ethanol] | – | – | 0% | 0% | – |
| CCCC(O)CCC [4-Heptanol] | – | – | 21% | 12% | – |
| RbCl2 | 99% | 91% | – | – | – |
| CCCC(C)O (stereo not shown) [2-Pentanol] | – | – | 2% | 5% | – |
| [Cl][Sn][Cl] [SnCl2] | 102% | 78% | – | – | – |
| [Cl-].[K+] [KCl] | 116% | 93% | – | – | – |
| CCCCCCC(C)O (stereo not shown) [2-Octanol] | – | – | 3% | 6% | – |
| CCCCCCC(O)CCC (stereo not shown) [4-Decanol] | – | – | 3% | 1% | – |
| [Cl-].[Cl-].[Sr+2] [SrCl2] | 101% | 99% | – | – | – |
| [Cl][Mn][Cl] [MnCl2] | 87% | 96% | – | – | – |
| [Cl-].[Na+] [NaCl] | – | – | – | – | Relative activity (%) PVA-B (PVA-B [1]): 106%; Relative activity (%) PVA-A (PVA-A [2]): 94% |
| [Cl][Fe]([Cl])[Cl] [FeCl3] | 19% | 29% | – | – | Effect on PVA-oxidizing activity (PVA-A and PVA-B): remarkably inhibited |
| [Cl][Ni][Cl] [NiCl2] | 76% | 91% | – | – | – |
| CCCCCO [Pentanol] | – | – | 0% | 0% | – |
| Butanol | – | – | 0% | 0% | – |
| [Cl-].[Cl-].[Mg+2] [MgCl2] | 104% | 98% | – | – | – |
| CCCCCCO [Hexanol] | – | – | 0% | 1% | – |
| O=C(O)CN(CCN(CC(=O)O)CC(=O)O)CC(=O)O [EDTA] | 45% | 56% | – | – | Effect on PVA-oxidizing activity (PVA-A and PVA-B): also inhibited |
| CCCCCCCO [Heptanol] | – | – | 0% | 1% | – |
| CCCCC(C)O (stereo not shown) [2-Hexanol] | – | – | 5% | 8% | – |
| CO [Methanol] | – | – | 0% | 0% | – |
| CC(C)O [2-Propanol] | – | – | 0% | 1% | – |
| CCCCCCCCCCO [Decanol] | – | – | 0% | 0% | – |
| [Cl][Al]([Cl])[Cl] [AlCl3] | 63% | 91% | – | – | – |
